Test results as given in patent publication US5288709A, “Erythromycin derivatives” (priority 1991, dated 1994).
Values after ≈ are worked out from the molar mass of the structure shown. Like-named read-outs stand apart in the source and are kept apart here.

Columns and labels:
Assay in all cases: In-vitro antimicrobial activity primary screen (agar dilution MIC)
Format in all cases: cell-based
[1] = test system: Staphylococcus aureus CMX 553; conditions: Staphylococcus aureus, CMX553, 24 h, BHI agar, 20-24 h, read-out: MIC
In short: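 Agar dilution in Brain Heart Infusion agar with twelve successive compound dilutions; plates inoculated with 1:100 diluted cultures by replicator and incubated 20-24 h at 35-37 °C. MIC is the lowest concentration giving no growth, slight haze or sparse isolated colonies versus compound-free control; erythromycin A plate run as reference.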

[2] = test system: Micrococcus luteus ATCC 9341; conditions: 20-24 h
In short: (§1)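 Steps: prepare 12 BHI agar plates with serial aqueous dilutions; inoculate with 1:100 dilutions (1:10 for Streptococcus and other slow growers); incubate 35-37° C, 20-24 h; score MIC as lowest concentration with no growth, slight haze or isolated colonies.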

Acinetobacter SP CMX 669 = conditions: Acinetobacter, SPCMX669, 24 h
In short: as §1

[3] = test system: Streptococcus agalactiae CMX 508; conditions: 20-24 h
In short: as §1

Pseudomonas cepacia 2961 = conditions: Burkholderia cepacia, 2961, 24 h, BHI agar, 20-24 h
In short: as §1

[4] = test system: Klebsiella pneumoniae ATCC 8045; conditions: Klebsiella pneumoniae, ATCC8045, 24 h
In short: as §1

[5] = test system: Staphylococcus aureus 642A; conditions: BHI agar, 20-24 h, read-out: MIC
In short: as §1

Escherichia coli DC-2 = test system: Escherichia coli DC-2
In short: as §1

[6] = test system: Streptococcus pyrogenes EES61; conditions: BHI agar, 20-24 h
In short: as §1

[7] = test system: Enterococcus faecium ATCC 8043
In short: as §1

[8] = test system: Micrococcus luteus ATCC 4698; conditions: 20-24 h
In short: as §1

Staphylococcus aureus 45 = conditions: BHI agar, 20-24 h
In short: as §1

[9] = test system: Staphylococcus aureus A5177; conditions: Staphylococcus aureus, A5177, 24 h
In short: as §1

[10] = test system: Staphylococcus epidermidis 3519; conditions: BHI agar, 20-24 h
In short: as §1

[11] = test system: Pseudomonas aeruginosa K799/WT; conditions: Pseudomonas aeruginosa, K799/WT, 24 h
In short: as §1

[12] = test system: Staphylococcus aureus 45 RAR2; conditions: Staphylococcus aureus, 45RAR2, 24 h, BHI agar, 20-24 h
In short: as §1

[13] = test system: Providencia stuartii CMX 640; conditions: Providencia stuartii, CMX640, 24 h
In short: as §1

[14] = test system: Streptococcus pyrogenes 2548 INDUC; conditions: BHI agar, 20-24 h, read-out: MIC
In short: as §1

Escherichia coli SS = conditions: BHI agar, 20-24 h, read-out: MIC
In short: as §1

[15] = test system: Pseudomonas aeruginosa K799/61; conditions: Pseudomonas aeruginosa K799/61; BHI agar, 20-24 h; read-out: MIC
In short: as §1

Escherichia coli H560 = test system: Escherichia coli H560
In short: as §1

[16] = test system: Staphylococcus aureus ATCC 6538P; conditions: Staphylococcus aureus, ATCC6538P, 24 h, BHI agar, 20-24 h
In short: as §1

Escherichia coli JUHL = test system: Escherichia coli JUHL
In short: as §1

[17] = test system: Pseudomonas aeruginosa A5007; conditions: Pseudomonas aeruginosa, A5007, 24 h
In short: as §1

[18] = test system: Streptococcus bovis A5169; conditions: Streptococcus equinus, BHI agar, 20-24 h
In short: as §1

[19] = test system: Staphylococcus aureus NCTC 10649; conditions: NCTC10649, BHI agar, 20-24 h, read-out: MIC
In short: as §1

[20] = test system: Enterobacter aerogenes ATCC 13048; conditions: Klebsiella aerogenes, ATCC13048, 24 h
In short: as §1

[21] = test system: Pseudomonas aeruginosa BMH10; conditions: Pseudomonas aeruginosa, BMH10, 24 h, BHI agar, 20-24 h
In short: as §1

## CC[C@H]1OC(=O)[C@H](C)[C@@H](O[C@H]2C[C@@](C)(OC)[C@H](O)[C@H](C)O2)[C@H](C)[C@@H](O[C@@H]2O[C@H](C)C[C@H](N(C)C)[C@H]2O)[C@](C)(O)C[C@@H](C)[C@@H]2O[C@@]1(C)C(=O)[C@H]2C [Example 21, (4"R,9S)-9-Deoxo-11,12-dideoxy-9,12-epoxy-11-oxoerythromycin A]
[1]
  MIC: 0.2 mg/L (≈ 0.279 µM)
[2]; Micrococcus luteus, ATCC9341, 24 h, BHI agar
  MIC: ≤ 0.005 mg/L
Acinetobacter SP CMX 669
  MIC: 0.39 mg/L (≈ 0.545 µM)
[3]; CMX508, BHI agar, read-out: MIC
  MIC: 0.01 mg/L (≈ 0.014 µM)
Pseudomonas cepacia 2961
  MIC: > 100 mg/L
[4]
  MIC: 1.56 mg/L (≈ 2.18 µM)
[5]
  MIC: 0.2 mg/L (≈ 0.279 µM)
Escherichia coli DC-2; DC2, Escherichia coli DC-2, BHI agar, 20-24 h, read-out: MIC
  MIC: 3.1 mg/L (≈ 4.33 µM)
[6]; read-out: MIC
  MIC: 0.01 mg/L (≈ 0.014 µM)
[7]; ATCC8043, Enterococcus faecium ATCC 8043, BHI agar, 20-24 h, read-out: MIC
  MIC: 0.05 mg/L (≈ 0.0698 µM)
[8]; ATCC4698, BHI agar, read-out: MIC
  MIC: 0.05 mg/L (≈ 0.0698 µM)
Staphylococcus aureus 45; read-out: MIC
  MIC: 0.1 mg/L (≈ 0.14 µM)
[9]; Staphylococcus aureus A5177, BHI agar, 20-24 h
  MIC: 1.56 mg/L (≈ 2.18 µM)
[10]; read-out: MIC
  MIC: 0.2 mg/L (≈ 0.279 µM)
[11]
  MIC: 100 mg/L (≈ 140 µM)
[12]
  MIC: 0.2 mg/L (≈ 0.279 µM)
[13]
  MIC: > 100 mg/L
[14]
  MIC: 1.56 mg/L (≈ 2.18 µM)
Escherichia coli SS
  MIC: 0.1 mg/L (≈ 0.14 µM)
[15]
  MIC: 0.39 mg/L (≈ 0.545 µM)
Escherichia coli H560; Escherichia coli H560, BHI agar, 20-24 h, read-out: MIC
  MIC: 0.78 mg/L (≈ 1.09 µM)
[16]
  MIC: 0.2 mg/L (≈ 0.279 µM)
Escherichia coli JUHL; Escherichia coli JUHL, BHI agar, 20-24 h, read-out: MIC
  MIC: 1.56 mg/L (≈ 2.18 µM)
[17]
  MIC: > 100 mg/L
[18]; read-out: MIC
  MIC: 0.01 mg/L (≈ 0.014 µM)
[19]
  MIC: 0.2 mg/L (≈ 0.279 µM)
[20]; Enterobacter aerogenes ATCC 13048, BHI agar, 20-24 h
  MIC: 6.2 mg/L (≈ 8.66 µM)
[21]
  MIC: 12.5 mg/L (≈ 17.5 µM)

## CC[C@H]1OC(=O)[C@H](C)[C@@H](O[C@H]2C[C@@](C)(OC)[C@@H](O)[C@H](C)O2)[C@H](C)[C@@H](O[C@@H]2O[C@H](C)C[C@H](N(C)C)[C@H]2O)[C@](C)(OC)C[C@@H](C)C2=C(C)C(=O)[C@]1(C)O2 [Example 27, 9,10-Dihehydro-9-deoxo-11,12-dideoxy-9,12-epoxy-6-O-methyl-11-oxoerythromycin A]
[1]
  MIC: 0.39 mg/L (≈ 0.536 µM)
[2]; ATCC9341, BHI agar, read-out: MIC
  MIC: 0.05 mg/L (≈ 0.0687 µM)
[3]; Streptococcus agalactiae, CMX508, 24 h, BHI agar
  MIC: 0.05 mg/L (≈ 0.0687 µM)
Pseudomonas cepacia 2961
  MIC: > 100 mg/L
[4]
  MIC: > 100 mg/L
[5]
  MIC: 0.39 mg/L (≈ 0.536 µM)
Escherichia coli DC-2; Escherichia coli, DC2, 24 h
  MIC: > 100 mg/L
[6]; Streptococcus, EES61, 24 h
  MIC: 0.05 mg/L (≈ 0.0687 µM)
[7]; Enterococcus faecium, ATCC8043, 24 h
  MIC: 0.1 mg/L (≈ 0.137 µM)
[8]; Micrococcus luteus, ATCC4698, 24 h, BHI agar
  MIC: 0.2 mg/L (≈ 0.275 µM)
Staphylococcus aureus 45; Staphylococcus aureus, 45, 24 h
  MIC: 3.1 mg/L (≈ 4.26 µM)
[9]
  MIC: 0.39 mg/L (≈ 0.536 µM)
[10]; Staphylococcus epidermidis, 3519, 24 h
  MIC: 0.39 mg/L (≈ 0.536 µM)
[11]
  MIC: > 100 mg/L
[12]
  MIC: 0.39 mg/L (≈ 0.536 µM)
[13]
  MIC: > 100 mg/L
[14]
  MIC: 100 mg/L (≈ 137 µM)
Escherichia coli SS
  MIC: 0.78 mg/L (≈ 1.07 µM)
Escherichia coli H560; Escherichia coli, H560, 24 h
  MIC: 100 mg/L (≈ 137 µM)
[16]
  MIC: 0.39 mg/L (≈ 0.536 µM)
Escherichia coli JUHL; Escherichia coli, 24 h
  MIC: > 100 mg/L
[17]
  MIC: > 100 mg/L
[18]; A5169, 24 h
  MIC: 0.05 mg/L (≈ 0.0687 µM)
[19]
  MIC: 0.39 mg/L (≈ 0.536 µM)
[20]
  MIC: > 100 mg/L
[21]
  MIC: 100 mg/L (≈ 137 µM)
